This is an account of results in article PMC6100537, “Exploration of the Fluorescent Properties and the Modulated Activities against Sirtuin Fluorogenic Assays of Chromenone-Derived Natural Products” (Molecules : A Journal of Synthetic Chemistry and Natural …, 2018).

For one test, the target named is T1, SIRT1 (Homo sapiens, UniProt Q96EB6).
T1 construct: SIRT1 (part)
T1 sequence (Q96EB6 2-747): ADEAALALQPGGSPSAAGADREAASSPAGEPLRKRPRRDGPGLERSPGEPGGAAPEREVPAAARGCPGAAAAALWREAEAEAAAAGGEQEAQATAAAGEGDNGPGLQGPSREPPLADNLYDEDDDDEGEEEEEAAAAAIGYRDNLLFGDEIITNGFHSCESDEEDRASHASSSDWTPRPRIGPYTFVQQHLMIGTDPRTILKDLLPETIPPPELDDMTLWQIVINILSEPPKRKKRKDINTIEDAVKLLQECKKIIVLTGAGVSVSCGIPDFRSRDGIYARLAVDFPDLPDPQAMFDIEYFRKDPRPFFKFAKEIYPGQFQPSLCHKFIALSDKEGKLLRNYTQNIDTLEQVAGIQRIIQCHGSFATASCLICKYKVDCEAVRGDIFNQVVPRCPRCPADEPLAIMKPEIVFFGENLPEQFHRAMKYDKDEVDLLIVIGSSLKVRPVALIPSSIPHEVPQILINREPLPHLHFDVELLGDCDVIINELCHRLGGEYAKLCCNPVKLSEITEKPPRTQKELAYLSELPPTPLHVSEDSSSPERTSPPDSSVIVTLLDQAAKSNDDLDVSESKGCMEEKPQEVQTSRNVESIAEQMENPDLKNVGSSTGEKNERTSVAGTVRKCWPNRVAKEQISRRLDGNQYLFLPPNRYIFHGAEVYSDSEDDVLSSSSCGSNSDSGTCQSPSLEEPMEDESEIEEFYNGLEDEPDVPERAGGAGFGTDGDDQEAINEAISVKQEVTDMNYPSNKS
The experiment in a line: AMC-peptide fluorogenic deacetylase assay with recombinant SIRT1, activation at […], compound fluorescence background subtracted. The class given is biochemical.

In a further test the target is T2, SIRT2 (Homo sapiens, UniProt Q8IXJ6).
T2 construct: SIRT2 (whole)
T2 sequence (Q8IXJ6 1-389): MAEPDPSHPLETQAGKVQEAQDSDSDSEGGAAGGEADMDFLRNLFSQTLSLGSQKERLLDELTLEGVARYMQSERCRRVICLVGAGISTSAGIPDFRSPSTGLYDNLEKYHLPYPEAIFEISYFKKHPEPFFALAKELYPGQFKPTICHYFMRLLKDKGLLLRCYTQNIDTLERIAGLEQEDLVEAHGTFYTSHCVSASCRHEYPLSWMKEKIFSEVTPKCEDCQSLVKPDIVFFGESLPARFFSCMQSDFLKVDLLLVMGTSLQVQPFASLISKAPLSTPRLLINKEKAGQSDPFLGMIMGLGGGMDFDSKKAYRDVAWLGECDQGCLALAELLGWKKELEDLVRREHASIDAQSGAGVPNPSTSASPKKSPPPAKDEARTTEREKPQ
The experiment in a line: AMC-peptide fluorogenic deacetylase assay with recombinant SIRT2; Lineweaver-Burk kinetics. It counts as biochemical.

Take `Oc1ccc(/C=C/c2cc(O)cc(O)c2)cc1` [compound 1, resveratrol]: on SIRT1, the fold induction at 10 µM amounted to 11.6.

For `COc1ccc2ccc(=O)oc2c1CC=C(C)C` [compound 4, osthole], at SIRT2, the IC50 amounted to 10 µM.
